Experimental findings from ChEMBL document CHEMBL5291721, “A preclinical secondary pharmacology resource illuminates target-adverse drug reaction associations of marketed drugs” (Nat Commun, 2023) are described below.

Some results are limits rather than exact numbers.

Assay [1] addresses T1, Muscarinic acetylcholine receptor M2 (Homo sapiens, UniProt P08172).
T1 sequence (P08172 whole entry): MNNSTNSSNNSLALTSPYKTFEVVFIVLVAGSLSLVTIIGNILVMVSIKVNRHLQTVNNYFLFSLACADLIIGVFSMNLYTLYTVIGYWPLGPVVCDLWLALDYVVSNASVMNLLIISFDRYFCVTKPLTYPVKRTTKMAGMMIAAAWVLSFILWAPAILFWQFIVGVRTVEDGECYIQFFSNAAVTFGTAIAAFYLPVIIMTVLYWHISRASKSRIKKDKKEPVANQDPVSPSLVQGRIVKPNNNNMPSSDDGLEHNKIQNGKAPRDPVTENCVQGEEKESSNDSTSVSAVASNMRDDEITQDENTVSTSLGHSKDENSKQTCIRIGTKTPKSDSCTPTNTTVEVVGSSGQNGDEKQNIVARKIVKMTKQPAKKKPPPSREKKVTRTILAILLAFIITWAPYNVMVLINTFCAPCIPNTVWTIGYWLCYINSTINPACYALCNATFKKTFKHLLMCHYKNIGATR
The assay is classed as functional, cell-based.

Assay [2] has as its target Delta-type opioid receptor (Homo sapiens, UniProt P41143).
Assay [3] addresses T2, Amine oxidase [flavin-containing] A (Homo sapiens, UniProt P21397).
T2 sequence (P21397 whole entry): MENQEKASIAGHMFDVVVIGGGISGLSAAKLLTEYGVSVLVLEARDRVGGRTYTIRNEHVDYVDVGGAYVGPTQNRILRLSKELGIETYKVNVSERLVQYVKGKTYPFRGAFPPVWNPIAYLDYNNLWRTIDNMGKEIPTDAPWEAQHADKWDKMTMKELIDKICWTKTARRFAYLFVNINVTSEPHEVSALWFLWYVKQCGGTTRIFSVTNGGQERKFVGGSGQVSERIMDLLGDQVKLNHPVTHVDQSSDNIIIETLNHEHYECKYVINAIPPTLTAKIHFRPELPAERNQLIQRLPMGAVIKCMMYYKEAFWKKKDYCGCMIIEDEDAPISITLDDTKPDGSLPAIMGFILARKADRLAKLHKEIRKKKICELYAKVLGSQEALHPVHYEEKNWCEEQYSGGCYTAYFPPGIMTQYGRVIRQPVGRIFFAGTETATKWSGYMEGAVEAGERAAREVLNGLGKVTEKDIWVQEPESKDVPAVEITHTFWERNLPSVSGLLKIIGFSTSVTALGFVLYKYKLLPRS
The assay is classed as functional.

Assay [4] concerns the target T3, 5-hydroxytryptamine receptor 3A (Homo sapiens, UniProt P46098).
T3 sequence (P46098 whole entry): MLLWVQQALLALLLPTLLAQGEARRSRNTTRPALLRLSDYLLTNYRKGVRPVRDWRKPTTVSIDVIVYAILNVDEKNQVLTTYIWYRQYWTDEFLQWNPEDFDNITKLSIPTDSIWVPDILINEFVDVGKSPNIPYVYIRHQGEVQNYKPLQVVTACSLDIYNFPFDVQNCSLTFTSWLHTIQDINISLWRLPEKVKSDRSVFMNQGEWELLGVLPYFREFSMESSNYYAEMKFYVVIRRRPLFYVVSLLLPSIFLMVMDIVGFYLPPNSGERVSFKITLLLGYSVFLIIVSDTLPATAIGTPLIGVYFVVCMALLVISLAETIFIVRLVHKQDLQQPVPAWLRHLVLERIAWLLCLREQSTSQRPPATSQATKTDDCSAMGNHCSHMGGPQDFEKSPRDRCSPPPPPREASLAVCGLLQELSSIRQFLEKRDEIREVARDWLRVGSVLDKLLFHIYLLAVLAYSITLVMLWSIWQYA
The assay is classed as functional.

Assay [5] concerns the target T4, Type-1 angiotensin II receptor (Homo sapiens, UniProt P30556).
T4 sequence (P30556 whole entry): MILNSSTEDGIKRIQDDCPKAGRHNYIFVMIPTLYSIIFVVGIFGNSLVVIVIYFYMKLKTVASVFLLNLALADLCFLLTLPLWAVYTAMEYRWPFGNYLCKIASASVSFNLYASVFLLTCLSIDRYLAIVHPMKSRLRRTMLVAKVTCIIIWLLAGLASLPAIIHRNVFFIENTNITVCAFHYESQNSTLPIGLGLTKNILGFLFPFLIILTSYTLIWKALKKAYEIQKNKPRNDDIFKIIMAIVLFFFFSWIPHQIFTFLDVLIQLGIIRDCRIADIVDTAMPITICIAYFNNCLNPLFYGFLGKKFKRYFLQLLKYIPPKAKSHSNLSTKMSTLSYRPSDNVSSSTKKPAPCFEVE

In assay [6] the target is Growth hormone secretagogue receptor type 1 (Homo sapiens, UniProt Q92847).
Sequence of Growth hormone secretagogue receptor type 1 (Q92847 whole entry): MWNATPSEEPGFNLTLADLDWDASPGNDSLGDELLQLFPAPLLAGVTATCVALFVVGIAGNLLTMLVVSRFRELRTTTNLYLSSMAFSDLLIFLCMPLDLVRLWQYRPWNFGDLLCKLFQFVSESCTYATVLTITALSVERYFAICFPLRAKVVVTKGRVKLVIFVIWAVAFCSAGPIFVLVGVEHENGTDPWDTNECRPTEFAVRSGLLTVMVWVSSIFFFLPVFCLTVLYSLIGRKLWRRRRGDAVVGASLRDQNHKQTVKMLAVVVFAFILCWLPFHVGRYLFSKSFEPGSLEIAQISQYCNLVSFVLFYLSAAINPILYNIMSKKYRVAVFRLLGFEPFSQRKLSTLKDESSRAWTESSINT
The next assay has as its target T5, Adenosine receptor A3 (Homo sapiens, UniProt P0DMS8).
T5 sequence (P0DMS8 whole entry): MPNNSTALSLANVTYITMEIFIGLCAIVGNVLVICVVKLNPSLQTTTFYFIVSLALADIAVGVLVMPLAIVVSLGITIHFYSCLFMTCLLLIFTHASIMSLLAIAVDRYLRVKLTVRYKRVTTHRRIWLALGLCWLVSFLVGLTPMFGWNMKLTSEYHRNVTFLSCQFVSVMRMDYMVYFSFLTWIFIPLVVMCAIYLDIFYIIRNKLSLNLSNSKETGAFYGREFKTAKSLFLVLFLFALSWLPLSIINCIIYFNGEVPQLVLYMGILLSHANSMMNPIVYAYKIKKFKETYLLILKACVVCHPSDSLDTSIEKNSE

The next assay deals with Vasopressin V1a receptor (Homo sapiens, UniProt P37288).
Sequence of Vasopressin V1a receptor (P37288 whole entry): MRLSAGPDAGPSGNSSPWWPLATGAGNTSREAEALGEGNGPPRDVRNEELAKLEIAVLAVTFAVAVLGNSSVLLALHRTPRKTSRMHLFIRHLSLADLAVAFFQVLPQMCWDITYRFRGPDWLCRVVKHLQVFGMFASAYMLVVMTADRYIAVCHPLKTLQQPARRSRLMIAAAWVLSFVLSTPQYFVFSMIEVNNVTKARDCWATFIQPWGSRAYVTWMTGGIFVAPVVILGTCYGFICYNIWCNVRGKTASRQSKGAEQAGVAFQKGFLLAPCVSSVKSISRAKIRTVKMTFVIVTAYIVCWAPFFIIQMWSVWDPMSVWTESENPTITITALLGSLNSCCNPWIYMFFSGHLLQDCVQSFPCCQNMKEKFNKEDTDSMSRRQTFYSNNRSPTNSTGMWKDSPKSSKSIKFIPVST
Assay [7] addresses T6, 5-hydroxytryptamine receptor 1A (Homo sapiens, UniProt P08908).
T6 sequence (P08908 whole entry): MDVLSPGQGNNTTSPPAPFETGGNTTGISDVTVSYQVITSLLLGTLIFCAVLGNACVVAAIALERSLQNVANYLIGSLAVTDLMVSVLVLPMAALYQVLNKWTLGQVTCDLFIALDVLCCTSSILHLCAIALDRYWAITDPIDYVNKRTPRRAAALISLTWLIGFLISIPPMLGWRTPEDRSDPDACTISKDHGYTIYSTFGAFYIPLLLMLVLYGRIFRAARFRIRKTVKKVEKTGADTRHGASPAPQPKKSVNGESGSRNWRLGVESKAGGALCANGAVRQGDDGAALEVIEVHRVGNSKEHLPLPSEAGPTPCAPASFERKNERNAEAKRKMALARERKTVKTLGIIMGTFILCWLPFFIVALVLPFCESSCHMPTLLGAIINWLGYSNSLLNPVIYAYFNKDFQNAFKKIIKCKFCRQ
The assay is classed as functional, cell-based.

Assay [8] addresses 3',5'-cyclic-AMP phosphodiesterase 4D (Homo sapiens, UniProt Q08499). The assay is classed as functional.
In assay [9] the target is Gamma-aminobutyric acid receptor subunit alpha-1 (Rattus norvegicus, UniProt P62813). Type of assay: functional.
Sequence of Gamma-aminobutyric acid receptor subunit alpha-1 (P62813 whole entry): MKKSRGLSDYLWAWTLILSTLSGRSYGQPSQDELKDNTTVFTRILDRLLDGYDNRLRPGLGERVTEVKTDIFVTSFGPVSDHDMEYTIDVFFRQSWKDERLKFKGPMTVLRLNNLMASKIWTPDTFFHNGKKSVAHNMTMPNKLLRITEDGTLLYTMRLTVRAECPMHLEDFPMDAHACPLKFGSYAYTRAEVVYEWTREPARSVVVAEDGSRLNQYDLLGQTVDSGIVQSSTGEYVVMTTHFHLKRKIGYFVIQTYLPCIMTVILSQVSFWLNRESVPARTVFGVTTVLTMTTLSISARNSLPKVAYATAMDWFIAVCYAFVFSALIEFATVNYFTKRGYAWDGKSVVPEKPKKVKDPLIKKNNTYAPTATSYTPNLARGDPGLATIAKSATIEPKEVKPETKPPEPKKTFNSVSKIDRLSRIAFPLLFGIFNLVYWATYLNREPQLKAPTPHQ
Further: assay procedure not described here.

Sequence of Delta-type opioid receptor (P41143 whole entry): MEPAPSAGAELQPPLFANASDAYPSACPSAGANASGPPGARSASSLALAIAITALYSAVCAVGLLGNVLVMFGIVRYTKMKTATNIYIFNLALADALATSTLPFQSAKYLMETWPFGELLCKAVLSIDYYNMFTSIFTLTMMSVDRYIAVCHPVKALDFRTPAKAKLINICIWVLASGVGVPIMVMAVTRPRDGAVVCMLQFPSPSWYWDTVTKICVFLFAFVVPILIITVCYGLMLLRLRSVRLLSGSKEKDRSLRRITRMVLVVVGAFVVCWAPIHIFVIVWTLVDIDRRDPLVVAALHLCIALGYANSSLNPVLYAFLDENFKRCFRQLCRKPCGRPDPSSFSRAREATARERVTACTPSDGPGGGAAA
Sequence of 3',5'-cyclic-AMP phosphodiesterase 4D (Q08499 whole entry): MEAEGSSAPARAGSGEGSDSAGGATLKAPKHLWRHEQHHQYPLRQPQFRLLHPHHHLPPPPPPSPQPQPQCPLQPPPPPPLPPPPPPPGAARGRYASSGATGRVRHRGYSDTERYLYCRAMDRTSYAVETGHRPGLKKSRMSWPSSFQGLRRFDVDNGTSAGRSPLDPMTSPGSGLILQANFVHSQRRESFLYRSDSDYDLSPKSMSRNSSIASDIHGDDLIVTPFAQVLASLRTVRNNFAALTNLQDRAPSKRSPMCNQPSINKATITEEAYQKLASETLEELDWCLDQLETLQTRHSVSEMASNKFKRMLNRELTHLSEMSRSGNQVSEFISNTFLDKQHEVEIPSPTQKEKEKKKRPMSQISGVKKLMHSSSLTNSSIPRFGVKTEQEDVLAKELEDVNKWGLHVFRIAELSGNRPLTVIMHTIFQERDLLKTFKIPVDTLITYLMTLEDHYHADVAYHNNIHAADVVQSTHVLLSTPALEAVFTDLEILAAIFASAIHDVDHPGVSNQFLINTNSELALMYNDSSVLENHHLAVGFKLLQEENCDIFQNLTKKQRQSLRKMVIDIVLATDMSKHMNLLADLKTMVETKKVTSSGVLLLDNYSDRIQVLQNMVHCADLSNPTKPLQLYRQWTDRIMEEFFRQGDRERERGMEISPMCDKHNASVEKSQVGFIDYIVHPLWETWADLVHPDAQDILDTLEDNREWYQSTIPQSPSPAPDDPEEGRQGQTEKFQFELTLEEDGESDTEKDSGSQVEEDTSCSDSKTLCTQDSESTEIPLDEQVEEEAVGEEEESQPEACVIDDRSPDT

What is called AC50 is the midpoint of the concentration-response curve, whichever way the signal moves. Read a low AC50 as greater potency. Regarding `Cn1nnc2c(C(N)=O)ncn2c1=O` [TEMOZOLOMIDE], the AC50 in [1], in [2], in assay [3], in assay [4], in [5] and in assay [6] was more than 30 µM in each case. For the same compound, the AC50 (at Adenosine receptor A3; at Vasopressin V1a receptor; in [7]; in assay [8]; in [9]) was more than 30 µM each time.
`O=C(OCC(O)CO)c1ccccc1Nc1ccnc2cc(Cl)ccc12` (stereo not given) [GLAFENINE]: the AC50 in assay [1] is more than 10 µM; in assay [2] it was more than 30 µM; in assay [3], more than 30 µM; in assay [4], more than 30 µM; in [5], more than 30 µM; in assay [6], more than 30 µM. The AC50 at Adenosine receptor A3 is 7.2 µM; on Vasopressin V1a receptor, more than 30 µM; in [7] it was more than 30 µM; in assay [8], 0.17 µM; in assay [9], 0.046 µM.
Consider `CO[C@H]1C[C@@H]2CC[C@@H](C)[C@@](O)(O2)C(=O)C(=O)N2CCCC[C@H]2C(=O)O[C@H]([C@H](C)C[C@@H]2CC[C@@H](O)[C@H](OC)C2)CC(=O)[C@H](C)/C=C(\C)[C@@H](O)[C@@H](OC)C(=O)[C@H](C)C[C@H](C)/C=C/C=C/C=C/1C` [SIROLIMUS], for which the AC50 is more than 10 µM in assay [1]; more than 30 µM in [2]; 5.6 µM in assay [3]; more than 30 µM in [4]; more than 30 µM in assay [5]; more than 30 µM in [6]. Also, the AC50 was 21.3 µM at Adenosine receptor A3; more than 30 µM at Vasopressin V1a receptor; more than 10 µM in [7]; more than 30 µM in assay [8]; more than 10 µM in assay [9].
With `Cc1cn([C@H]2C=C[C@@H](CO)O2)c(=O)[nH]c1=O` [STAVUDINE], the AC50 in assay [1] was more than 10 µM; in assay [2] it was more than 10 µM; in [3], more than 30 µM; in assay [4] it was more than 10 µM; in assay [5] it was more than 30 µM; in assay [6] it was more than 30 µM. The AC50 at Adenosine receptor A3 is more than 30 µM; at Vasopressin V1a receptor it was more than 10 µM; in assay [7] it was more than 10 µM; in assay [8], more than 30 µM; in assay [9], more than 10 µM.
In the case of `CC(=O)NCCCS(=O)(=O)O` [ACAMPROSATE], the AC50 in assay [1], in assay [2], in assay [3], in assay [4], in [5] and in assay [6] was more than 30 µM in each case. For the same compound, the AC50 (on Adenosine receptor A3; at Vasopressin V1a receptor; in assay [7]; in assay [8]; in assay [9]) was more than 30 µM each time.
Regarding `CCOC(=O)[C@H](CCc1ccccc1)N[C@@H](C)C(=O)N1[C@H](C(=O)O)C[C@@H]2CCC[C@@H]21`, the AC50 in assay [1] is more than 10 µM; in [2], more than 30 µM; in assay [3], more than 10 µM; in assay [4], more than 30 µM; in assay [5], more than 30 µM; in assay [6], more than 30 µM. Besides, the AC50 on Adenosine receptor A3 was more than 30 µM; on Vasopressin V1a receptor, more than 10 µM; in assay [7], more than 10 µM; in assay [8], more than 30 µM; in assay [9], more than 10 µM.
With `CC[C@H]1[C@@H](O)[C@@H]2[C@H](CC[C@]3(C)[C@@H]([C@H](C)CCC(=O)O)CC[C@@H]23)[C@@]2(C)CC[C@@H](O)C[C@@H]12` [OBETICHOLIC ACID], the AC50 in assay [1] is 16 µM; in assay [2] it was more than 30 µM; in assay [3] it was more than 30 µM; in assay [4], more than 30 µM; in assay [5], more than 30 µM; in [6] it was more than 30 µM. The AC50 on Adenosine receptor A3 was 23 µM; at Vasopressin V1a receptor it was more than 30 µM; in assay [7], more than 30 µM; in [8] it was more than 30 µM; in assay [9], more than 30 µM.
Take `Cc1nc([N+](=O)[O-])cn1-c1ccc([N+](=O)[O-])cc1` [NITREFAZOLE]: the AC50 in assay [1], in assay [2], in assay [3], in assay [4], in assay [5] and in assay [6] was more than 30 µM in each case. Also, the AC50 (at Adenosine receptor A3; on Vasopressin V1a receptor; in assay [7]; in assay [8]; in assay [9]) was more than 30 µM each time.
As to `CN1C(C(=O)Nc2ccccn2)=C(O)c2sc(Cl)cc2S1(=O)=O` [LORNOXICAM], the AC50 is more than 10 µM in assay [1]; more than 30 µM in [2]; more than 10 µM in assay [3]; more than 30 µM in assay [4]; more than 30 µM in [5]; more than 30 µM in [6]. Moreover, the AC50 on Adenosine receptor A3 is more than 30 µM; at Vasopressin V1a receptor, more than 30 µM; in assay [7] it was more than 10 µM; in [8], more than 30 µM; in assay [9] it was more than 10 µM.
In the case of `CNC(=O)c1ccccc1Sc1ccc2c(/C=C/c3ccccn3)n[nH]c2c1` [AXITINIB], the AC50 in [1] is 4.2 µM; in [2] it was more than 30 µM; in assay [3], more than 30 µM; in assay [4] it was more than 30 µM; in assay [5] it was more than 30 µM; in [6], more than 30 µM. The AC50 on Adenosine receptor A3 was 4.52 µM; at Vasopressin V1a receptor it was more than 30 µM; in [7], more than 30 µM; in [8], more than 30 µM; in [9] it was more than 30 µM.
